Earlier results as cited in EP0615447B1, “SLOW-RELEASE FLURBIPROFEN-CONTAINING MEDICAMENT AND ITS USE” (ALFATEC-PHARMA GmbH, priority 1991, dated 1993).

Columns and labels:
[1] = water
[2] = in vivo
[3] = aqueous medium; compared with the racemate

Row | Compound | pKA | Löslichkeit in Wasser [1] | Plasmahalbwertszeit [2] | Auflösungsgeschwindigkeit [3]
1 | CC(C(=O)O)c1ccc(-c2ccccc2)c(F)c1 (racemic) [Flurbiprofen, 2-(2-Fluor-4-biphenylyl)propionsäure] | 4,16 | 32,5 mg/l | 3,9 h | 
2 | CC(C(=O)O)c1ccc(-c2ccccc2)c(F)c1 (racemic) [Pseudoracemat] |  |  |  | wesentlich höher
